Experimental data as given in PubChem BioAssay (NCI).
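Briefly, cells in 96-well plates were exposed to five compound concentrations for 48 h, and endpoints were estimated by linear interpolation. GI50 is the concentration that inhibits growth by half. TGI is the concentration that stops growth completely.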

Legend:
Test in all cases: growth of human tumour cells (NCI), 48 h
[1] = system: KM12 colon
[2] = system: IGROV1 ovarian
[3] = system: NCI-H522 lung
[4] = system: SR leukemia
[5] = system: CAKI-1 renal
[6] = system: SN12C renal
[7] = system: MDA-MB-231 breast
[8] = system: U251 CNS
[9] = system: RXF 393 renal
[10] = system: NCI/ADR-RES ovarian

SMILES | GI50 [1] [µM] | TGI [1] [µM] | GI50 [2] [µM] | TGI [2] [µM] | GI50 [3] [µM] | TGI [3] [µM] | GI50 [4] [µM] | TGI [4] [µM] | GI50 [5] [µM] | TGI [5] [µM] | GI50 [6] [µM] | TGI [6] [µM] | GI50 [7] [µM] | TGI [7] [µM] | GI50 [8] [µM] | TGI [8] [µM] | GI50 [9] [µM] | TGI [9] [µM] | GI50 [10] [µM] | TGI [10] [µM]
COc1ccc(-n2c(C)cc(-c3ccccc3)c2C)cc1 | 2.85 | 35.3 | 4.23 | 34.8 | 1.48 | 4.68 | 1.3 | 5.75 | 1.57 | 7.55 | 2.84 | > 100 | 1.56 | 3.66 | 2.87 | 25.4 | 1.7 | 5.31 | 3.33 | 21.5
O=C1NC(=O)/C(=C\c2ccccc2)C2=C1CCCC2 | 9.21 | 22 | 13 | 32.4 | 13.7 | 32.1 | 2.35 | 5.77 | 5.63 | 17.3 | 3.03 | 11 | 13.2 | 26.4 | 4.82 | 16.2 | 6.52 | 59.8 | 7.54 | 19.2
OCCCNc1nccc(-c2c(-c3ccc(F)cc3)nn3cc(C(F)(F)F)ccc23)n1 | 11.1 | > 25 | 12 | > 25 | 16.7 | > 25 | > 25 | > 25 | > 21.7 | > 25 | 13.3 | > 25 | 24.6 | > 25 | 19.3 | > 25 | 5.86 | 19.1 | 8.25 | > 25
CCN(Cc1ccccc1C)c1ccc(CO)c(Cl)c1 | 11.8 | 26.6 | – | 0.747 | 13.4 | 28.8 | 9.29 | 32.6 | 7.88 | 32 | 12.5 | 25.9 | 13.7 | 32 | 2.84 | 17.1 | 6.3 | 23.8 | 14.5 | 43.8
NCCSc1nc(-c2ccccc2)c(-c2ccccc2)o1 | – | > 100 | – | > 100 | – | > 100 | – | > 100 | – | > 100 | – | > 100 | – | > 100 | – | > 100 | – | > 100 | – | > 100
O=CN1CCN(CC(O)CN2CCCCC2)CC1 (centres undefined) | – | > 100 | – | > 100 | – | > 100 | – | > 100 | – | > 100 | – | > 100 | – | > 100 | – | > 100 | – | > 100 | – | > 100
O=C(CSC1CCc2ccccc21)N/N=C/c1ccccc1O (centres undefined) | 3.73 | 23.7 | 2.24 | 37.4 | 4.98 | 26.4 | 4.03 | 34.4 | 1.93 | 12.7 | 4.67 | 67.4 | 3.98 | 39.6 | 2.92 | 42.5 | 5.27 | 61.3 | 3.44 | 35
C=C1C(=O)O[C@H]2[C@H]1CC/C(COC(=O)/C=C\C(=O)NCc1ccc(Cn3c(=O)sn(CCCC)c3=O)cc1)=C\CC[C@@]1(C)O[C@@H]21 | 1.67 | 3.8 | 0.556 | 1.73 | 0.315 | 1.27 | 0.288 | > 100 | 0.328 | 1.48 | 0.865 | 2.25 | 0.992 | 2.34 | 1.43 | 3.2 | 0.547 | 1.79 | 1.51 | 6.13
Cc1nc2sc3c(c2c(=O)[nH]1)CCCC3 | – | > 100 | – | > 100 | – | > 100 | – | 81.1 | – | > 100 | – | > 100 | – | > 100 | – | > 100 | – | > 100 | – | > 100
CC1=NC(=Cc2cc(Br)cc(Br)c2)C(=O)N1n1c(-c2ccccc2)nc2ccccc2c1=O | – | > 100 | – | > 100 | – | > 100 | – | > 100 | – | > 100 | – | > 100 | – | > 100 | – | > 100 | – | > 100 | – | > 100
CCN1CCC(O)(/C=C/c2ccc(C)cc2)C(C(=O)/C=C/c2ccc(C)cc2)C1 (centres undefined) | – | 5.16 | – | 17.5 | – | 3.62 | – | 6.84 | – | 8.1 | – | 20.6 | – | 5.48 | – | 9.24 | – | 10.6 | – | 8.03
COc1ccc(-c2ccc(-c3ccc(C(=N)N)s3)s2)cc1 | 0.19 | 0.357 | 0.244 | 0.509 | 0.264 | 1.2 | 0.208 | 0.566 | 0.345 | 1.19 | 0.205 | 0.465 | 0.186 | 0.371 | 0.179 | 0.337 | 1.26 | 3.05 | 0.416 | 1.6
CCOC(=O)c1c(NC(=O)c2cccc(C(F)(F)F)c2)sc2c(CN(C)C)c(O)ccc12 | 4.92 | 17.9 | 12.2 | 28.8 | 5.03 | 28 | 3.16 | 6.92 | 2.16 | 5.07 | 7.68 | 20.4 | 4.23 | 15.2 | 2.21 | 5.45 | 1.81 | 3.76 | 8.82 | 21
COc1cc(OC)c(/C=C/c2c3ccccc3cc[n+]2C)c(OC)c1 | 0.673 | 6.85 | 2.32 | 19.8 | 1.52 | 6.49 | 2 | 41.2 | 18.6 | > 100 | 2.31 | 18.6 | 3.46 | 31.4 | 1.1 | 14.1 | 4.99 | > 51.3 | > 85.5 | > 100
